Assay results from patent US20230339889A1, “DERIVATIVES OF 2-OXO-N-(4-(PYRIMIDIN-4-YLOXY/THIO)PHENYL)-1,2-DIHYDROPYRIDINE-3-CARBOXAMIDE FOR USE AS PROTEIN KINASE INHIBITORS FOR THERAPY” (AUCENTRA THERAPEUTICS PTY LTD, priority 2020, published 2023).

Tests used:
TYRO3 = biological target: T1, TYRO3 (Homo sapiens, UniProt Q06418); assay: Filter-binding radiometric kinase activity assay (KinaseProfiler, Eurofins); assay type: biochemical; conditions: 1 µM compound; read-out: % Residual enzymatic activity at 1 µM TYRO3
T1 construct: purchased Eurofins Discovery (Kinase Profiler service)
T1 sequence (Q06418 41-890): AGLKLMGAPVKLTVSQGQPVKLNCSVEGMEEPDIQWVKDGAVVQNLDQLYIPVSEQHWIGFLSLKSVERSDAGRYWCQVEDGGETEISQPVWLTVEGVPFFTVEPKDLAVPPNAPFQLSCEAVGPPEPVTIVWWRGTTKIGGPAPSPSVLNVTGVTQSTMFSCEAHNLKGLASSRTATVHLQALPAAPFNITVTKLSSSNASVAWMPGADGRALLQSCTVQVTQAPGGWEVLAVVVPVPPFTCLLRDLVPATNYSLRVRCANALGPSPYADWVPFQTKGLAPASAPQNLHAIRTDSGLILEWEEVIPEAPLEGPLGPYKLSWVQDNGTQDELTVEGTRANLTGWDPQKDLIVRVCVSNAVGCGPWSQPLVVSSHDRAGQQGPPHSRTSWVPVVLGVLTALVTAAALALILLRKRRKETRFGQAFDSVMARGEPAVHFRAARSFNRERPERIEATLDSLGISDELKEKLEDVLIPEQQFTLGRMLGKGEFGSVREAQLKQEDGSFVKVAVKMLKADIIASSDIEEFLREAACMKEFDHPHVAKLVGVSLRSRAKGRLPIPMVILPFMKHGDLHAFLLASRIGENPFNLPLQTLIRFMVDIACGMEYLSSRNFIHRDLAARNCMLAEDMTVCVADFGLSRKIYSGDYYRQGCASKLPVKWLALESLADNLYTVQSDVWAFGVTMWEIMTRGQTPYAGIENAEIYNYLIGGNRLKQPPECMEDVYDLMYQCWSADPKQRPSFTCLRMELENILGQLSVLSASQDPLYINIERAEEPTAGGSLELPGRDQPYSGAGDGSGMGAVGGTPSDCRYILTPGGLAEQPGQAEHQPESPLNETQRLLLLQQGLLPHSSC
Procedure: (§1) Filter-binding radiometric kinase activity assay (Kinase Profiler™) from Eurofins Discovery was used to determine the % of inhibition and/or IC50 values. […] The reaction is initiated by the addition of the Mg/ATP mixture. After incubation for 40 minutes at room temperature, the reaction is stopped by the addition of phosphoric acid to a concentration of 0.5%. 10 µL of the reaction is then spotted onto a P30 filter mat and washed four times for 4 minutes in 0.425% phosphoric acid and once in methanol prior to drying and scintillation counting. The IC50 values were derived by fitting a sigmoidal dose-response curve to a plot of assay readout over inhibitor concentration. All fits were computed with the GraphPad Prism Software (San Diego, CA, United States of America). Ki values were derived from IC5o values using Cheng Prusoff equation (Cheng Y et al., Biochem Pharmacol 22(23):3099-3108, 1973).

AXL = biological target: T2, AXL (Homo sapiens, UniProt P30530); assay: as above; assay type: biochemical; conditions: 1 µM compound; read-out: % Residual enzymatic activity at 1 µM AXL
T2 construct: purchased Eurofins Discovery (Kinase Profiler service)
T2 sequence (P30530 26-894): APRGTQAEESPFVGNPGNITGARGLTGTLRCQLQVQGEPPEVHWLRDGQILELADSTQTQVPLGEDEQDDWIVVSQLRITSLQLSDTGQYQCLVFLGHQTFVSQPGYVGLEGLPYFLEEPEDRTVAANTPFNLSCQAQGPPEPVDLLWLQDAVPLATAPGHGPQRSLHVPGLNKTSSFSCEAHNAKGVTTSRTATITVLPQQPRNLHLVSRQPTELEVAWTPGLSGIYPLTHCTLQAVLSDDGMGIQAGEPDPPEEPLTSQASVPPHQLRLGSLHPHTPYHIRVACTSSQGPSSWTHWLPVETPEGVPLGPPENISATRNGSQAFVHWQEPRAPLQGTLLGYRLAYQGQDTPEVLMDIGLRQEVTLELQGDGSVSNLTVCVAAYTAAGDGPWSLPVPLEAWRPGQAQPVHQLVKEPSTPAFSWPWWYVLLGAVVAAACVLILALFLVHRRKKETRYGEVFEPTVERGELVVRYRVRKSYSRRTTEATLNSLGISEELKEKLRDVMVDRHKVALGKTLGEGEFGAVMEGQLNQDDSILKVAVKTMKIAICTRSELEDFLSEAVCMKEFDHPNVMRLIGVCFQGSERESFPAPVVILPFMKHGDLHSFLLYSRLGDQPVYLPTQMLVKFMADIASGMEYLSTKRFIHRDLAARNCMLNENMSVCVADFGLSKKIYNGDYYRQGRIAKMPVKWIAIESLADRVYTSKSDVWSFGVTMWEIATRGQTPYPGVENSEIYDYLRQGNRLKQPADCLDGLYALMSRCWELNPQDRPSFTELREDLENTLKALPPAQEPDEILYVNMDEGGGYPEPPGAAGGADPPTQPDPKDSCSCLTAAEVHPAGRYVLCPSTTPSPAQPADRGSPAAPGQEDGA
Procedure: as §1

Mer = biological target: T3, Mer (Homo sapiens, UniProt Q12866); assay: as above; assay type: biochemical; conditions: 1 µM compound; read-out: % Residual enzymatic activity at 1 µM Mer
T3 construct: purchased Eurofins Discovery (Kinase Profiler service)
T3 sequence (Q12866 21-999): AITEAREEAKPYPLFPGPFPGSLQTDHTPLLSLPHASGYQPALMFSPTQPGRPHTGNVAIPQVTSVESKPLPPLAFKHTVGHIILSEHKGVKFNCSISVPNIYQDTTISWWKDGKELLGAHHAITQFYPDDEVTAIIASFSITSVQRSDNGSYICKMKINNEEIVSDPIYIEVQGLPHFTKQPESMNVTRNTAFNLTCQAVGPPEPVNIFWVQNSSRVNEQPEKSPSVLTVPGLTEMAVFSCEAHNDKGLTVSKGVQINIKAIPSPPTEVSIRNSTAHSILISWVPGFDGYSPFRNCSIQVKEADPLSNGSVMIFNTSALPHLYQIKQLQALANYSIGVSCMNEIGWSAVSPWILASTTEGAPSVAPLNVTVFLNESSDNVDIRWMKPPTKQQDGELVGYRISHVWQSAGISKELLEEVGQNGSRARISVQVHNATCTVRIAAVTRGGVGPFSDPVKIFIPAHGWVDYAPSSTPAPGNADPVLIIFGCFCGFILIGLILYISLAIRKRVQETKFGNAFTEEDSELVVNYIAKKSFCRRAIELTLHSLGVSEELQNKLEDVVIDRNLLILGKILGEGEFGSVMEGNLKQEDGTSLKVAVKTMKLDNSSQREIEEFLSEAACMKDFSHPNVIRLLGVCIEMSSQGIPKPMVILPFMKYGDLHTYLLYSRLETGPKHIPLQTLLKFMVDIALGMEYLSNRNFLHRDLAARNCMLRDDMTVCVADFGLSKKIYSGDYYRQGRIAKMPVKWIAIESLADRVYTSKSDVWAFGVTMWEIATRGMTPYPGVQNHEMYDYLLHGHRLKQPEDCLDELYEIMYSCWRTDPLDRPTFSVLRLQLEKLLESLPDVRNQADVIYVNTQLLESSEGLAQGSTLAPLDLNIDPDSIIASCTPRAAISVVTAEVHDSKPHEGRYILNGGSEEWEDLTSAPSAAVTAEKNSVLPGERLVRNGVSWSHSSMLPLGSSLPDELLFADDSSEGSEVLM
Procedure: as §1

MET = biological target: T4, MET (Homo sapiens, UniProt P08581); assay: as above; assay type: biochemical; conditions: 1 µM compound; read-out: % Residual enzymatic activity at 1 µM MET
T4 construct: purchased Eurofins Discovery (Kinase Profiler service)
T4 sequence (P08581 25-1390): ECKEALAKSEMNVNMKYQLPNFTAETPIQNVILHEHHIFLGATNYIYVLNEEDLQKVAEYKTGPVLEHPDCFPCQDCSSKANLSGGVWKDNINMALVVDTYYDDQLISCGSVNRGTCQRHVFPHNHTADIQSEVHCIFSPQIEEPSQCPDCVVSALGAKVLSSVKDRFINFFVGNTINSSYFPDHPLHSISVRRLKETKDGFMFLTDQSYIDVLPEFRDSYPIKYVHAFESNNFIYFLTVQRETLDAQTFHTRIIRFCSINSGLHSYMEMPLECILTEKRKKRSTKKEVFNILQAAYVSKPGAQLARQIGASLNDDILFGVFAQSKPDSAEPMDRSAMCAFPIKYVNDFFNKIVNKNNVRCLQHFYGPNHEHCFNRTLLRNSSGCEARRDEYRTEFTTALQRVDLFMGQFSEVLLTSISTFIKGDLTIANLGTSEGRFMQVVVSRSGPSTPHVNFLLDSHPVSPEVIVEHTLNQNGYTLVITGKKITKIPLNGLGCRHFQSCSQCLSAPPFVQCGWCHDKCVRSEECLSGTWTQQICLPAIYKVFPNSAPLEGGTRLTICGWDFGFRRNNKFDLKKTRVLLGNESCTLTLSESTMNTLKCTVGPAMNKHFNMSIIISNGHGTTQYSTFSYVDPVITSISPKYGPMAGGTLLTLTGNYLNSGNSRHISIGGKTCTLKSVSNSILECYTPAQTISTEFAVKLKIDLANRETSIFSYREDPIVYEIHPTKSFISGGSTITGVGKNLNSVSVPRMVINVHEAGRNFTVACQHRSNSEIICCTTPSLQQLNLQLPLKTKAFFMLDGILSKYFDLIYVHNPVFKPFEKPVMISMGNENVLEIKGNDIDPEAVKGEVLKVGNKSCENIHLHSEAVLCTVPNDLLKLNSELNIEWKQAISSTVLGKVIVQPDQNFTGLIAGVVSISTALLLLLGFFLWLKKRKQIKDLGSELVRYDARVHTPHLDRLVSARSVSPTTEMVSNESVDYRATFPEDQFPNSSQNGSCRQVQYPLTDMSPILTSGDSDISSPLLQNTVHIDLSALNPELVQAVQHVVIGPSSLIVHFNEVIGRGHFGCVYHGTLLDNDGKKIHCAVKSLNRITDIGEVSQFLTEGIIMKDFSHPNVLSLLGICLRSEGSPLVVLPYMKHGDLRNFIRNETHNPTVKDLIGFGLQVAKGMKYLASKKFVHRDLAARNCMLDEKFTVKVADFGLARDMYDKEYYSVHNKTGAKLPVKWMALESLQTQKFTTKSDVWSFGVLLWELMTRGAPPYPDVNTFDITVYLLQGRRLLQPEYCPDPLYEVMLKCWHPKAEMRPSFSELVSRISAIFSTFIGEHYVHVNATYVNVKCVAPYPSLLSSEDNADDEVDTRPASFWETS
Procedure: as §1

CDK2E = CDK2E (Homo sapiens, UniProt P24941); assay: ADP Glo Kinase assay; assay type: biochemical; conditions: 1 µM compound; read-out: % Residual enzymatic activity at 1 µM CDK2E
Procedure: Inhibition of CDKs and FLT3 were determined using ADP Glo Kinase assays, as previously described in International Patent Publication No WO 2017/020065.

MV4-11 = assay: Proliferation assay (MTT, leukaemia cancer cell line); assay type: cell-based; conditions: Homo sapiens; 1 µM compound, MV4-11 cells
Excerpt: Compounds from Example 1 were subjected to standard resazurin and MTT assays on solid tumour and leukaemia cancer cell lines, respectively, as previously reported (Wang S et al., J Med Chem 47:1662-1675, 2004 and Diab S et al., CheMedChem 9:962-972, 2014).

SMILES	remaining activity at 1 µM (TYRO3) [%]	remaining activity at 1 µM (AXL) [%]	remaining activity at 1 µM (Mer) [%]	remaining activity at 1 µM (MET) [%]	remaining activity at 1 µM (CDK2E) [%]	activity at 1 µM (MV4-11) [%]
Nc1ncnc(Sc2ccc(NC(=O)c3cccn(-c4ccc(F)cc4)c3=O)cc2F)c1Cl [Cmpd 17, N-(4-((6-amino-5-chloropyrimidin-4-yl)thio)-3-fluorophenyl)-1-(4-fluorophenyl)-2-oxo-1,2-dihydropyridine-3-carboxamide]	52	55	81	65	101	4
Cc1ccc(-n2cccc(C(=O)Nc3ccc(Oc4ncnc(N)c4F)c(F)c3)c2=O)cc1 [Cmpd 35, N-(4-((6-amino-5-fluoropyrimidin-4-yl)oxy)-3-fluorophenyl)-2-oxo-1-(p-tolyl)-1,2-dihydropyridine-3-carboxamide]	14	70	99	60	97	6
Nc1ncnc(Sc2ccc(NC(=O)c3cccn(-c4ccc(F)cc4)c3=O)cc2F)c1F [Cmpd 19, N-(4-((6-amino-5-fluoropyrimidin-4-yl)thio)-3-fluorophenyl)-1-(4-fluorophenyl)-2-oxo-1,2-dihydropyridine-3-carboxamide]	89	84	99	78	93	6
Nc1ncc(Cl)c(Oc2ccc(NC(=O)c3cccn(-c4ccc(F)cc4)c3=O)cc2F)n1 [Cmpd 24, N-(4-((2-amino-5-chloropyrimidin-4-yl)oxy)-3-fluorophenyl)-1-(4-fluorophenyl)-2-oxo-1,2-dihydropyridine-3-carboxamide]	94	99	87	74		27

Now from value to compound, other results behind:

remaining activity at 1 µM (TYRO3) [%]	remaining activity at 1 µM (AXL) [%]	remaining activity at 1 µM (Mer) [%]	remaining activity at 1 µM (MET) [%]	remaining activity at 1 µM (CDK2E) [%]	SMILES	activity at 1 µM (MV4-11) [%]
89	92	88	87		Nc1ncc(Cl)c(Oc2ccc(NC(=O)c3cccn(-c4ccc(F)cc4)c3=O)c(F)c2)n1 [Cmpd 25, N-(4-((2-amino-5-chloropyrimidin-4-yl)oxy)-2-fluorophenyl)-1-(4-fluorophenyl)-2-oxo-1,2-dihydropyridine-3-carboxamide]	65
39	64	99	74		Cc1ccc(-n2cccc(C(=O)Nc3ccc(Oc4ncnc(N)c4Cl)cc3F)c2=O)cc1 [Cmpd 15, N-(4-((6-amino-5-chloropyrimidin-4-yl)oxy)-2-fluorophenyl)-2-oxo-1-(p-tolyl)-1,2-dihydropyridine-3-carboxamide]	26
6	23	74	10	82	Nc1ncnc(Oc2ccc(NC(=O)c3cccn(-c4ccc(Cl)cc4)c3=O)c(F)c2)c1Cl [Cmpd 33, N-(4-((6-amino-5-chloropyrimidin-4-yl)oxy)-2-fluorophenyl)-1-(4-chlorophenyl)-2-oxo-1,2-dihydropyridine-3-carboxamide]	1
	87	82	70	88	Nc1ncnc(Sc2ccc(NC(=O)c3cccn(-c4ccc(F)cc4)c3=O)c(F)c2)c1Cl [Cmpd 39, N-(4-((6-amino-5-chloropyrimidin-4-yl)thio)-2-fluorophenyl)-1-(4-fluorophenyl)-2-oxo-1,2-dihydropyridine-3-carboxamide]	4
